Patent publication US20090029979A1, “5-HTX MODULATORS” (BIO-MEDISINSK INNOVASJON AS, priority 2005, published 2009)
Counter-ions that a name gives are not always drawn.

Biological target: T1, human 5-HT2A receptor (Homo sapiens, UniProt P28223)
T1 construct: expressed in transfected cells; host or cells: HEK293, transient transfection
Experiment: Radioligand binding assay with [3H]ketanserin, membranes of HEK293 cells transiently transfected with human 5-HT2A receptor
Conditions: 5-HT2A ligands, values are pKd ± half-range, read-out: Binding affinity (pKd value) (pKd ± SEM) (converted)
Procedure: Binding assays were performed in 96-well, round-bottom microtiter plates with total reaction volumes of 50-200 μl, containing the indicated concentration of [^3H]GR113808 with or without competing unlabelled ligand in a binding buffer containing 50 mM Tris-HCl (pH 7.5 at RT), 1 mM EDTA, 5 mM EGTA, 2 mM MgCl2, 1 mM ascorbate, 0.1% BSA and 100 μM GTP. The plates were incubated at 23° C. for 60 min and harvested onto UniFilter™-96 GF/C™ (Packard Instrument Co., Meriden, Conn., USA), presoaked in 0.3% polyethyleneimine (Sigma), using a Packard FilterMate Universal Harvester with 96-well format, and washed 4-6 times with approximately 0.25 ml/well of ice-cold buffer, containing 50 mM Tris-HCl (pH 7.0 at RT) and 2 mM MgCl2. The filters were dried and counted at approximately 40% efficiency in a Top-Count liquid scintillation counter (Packard), using 20 μl per filter well of Micro-Scint liquid scintillation cocktail (Packard).
The same materials and methods described in example 83 were used for the biological testing of hydrophilic 5-HT7 and 5-HT2A ligands. Membrane preparations of HEK293 cell lines stably expressing human 5-HT7(a) receptors (Krobert et al. 2001), or HEK293 cells transiently transfected with human 5-HT2A receptor were used in the binding assays. […]

T1 sequence (P28223 whole entry): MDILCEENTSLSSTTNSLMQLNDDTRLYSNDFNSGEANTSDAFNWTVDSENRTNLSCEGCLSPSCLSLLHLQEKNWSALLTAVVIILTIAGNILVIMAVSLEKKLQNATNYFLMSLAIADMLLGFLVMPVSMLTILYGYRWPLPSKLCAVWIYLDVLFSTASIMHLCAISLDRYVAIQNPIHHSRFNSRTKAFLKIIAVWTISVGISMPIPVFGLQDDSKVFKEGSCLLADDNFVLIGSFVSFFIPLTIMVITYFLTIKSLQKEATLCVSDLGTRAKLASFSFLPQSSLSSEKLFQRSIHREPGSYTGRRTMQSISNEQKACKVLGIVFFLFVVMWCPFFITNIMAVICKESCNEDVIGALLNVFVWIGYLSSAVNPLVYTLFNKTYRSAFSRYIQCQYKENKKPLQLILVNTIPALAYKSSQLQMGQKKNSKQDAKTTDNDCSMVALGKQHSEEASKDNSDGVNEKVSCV

Structure (SMILES) | Kd
COC(=O)c1ccc(CN2CCC(NC(=O)C34CC5CC(CC(C5)C3)C4)C2)cc1 (centres unmarked) [Example 72] | 49 µM
COc1cc(OC)c(C(=O)CCCCN2CCC3(CC2)NC(=O)NC3=O)cc1NS(=O)(=O)c1ccc(C(F)(F)F)cc1 [RS102221, 8-(5-(2,4-Dimethoxy-5-(4-trifluoromethylphenylsulphonamido)phenyl-5-oxopentyl]-1,3,8-triazaspiro[4.5]decane-2,4-dione hydrochloride, reference compound] | 4.57 µM
